From US8207189B2, “Compound having affinity for amyloid” (Nihon Medi-Physics Co., Ltd., priority 2007, dated 2012)

Columns and labels:
[1] = WO03/106439; cited from earlier work
[2] = partition coefficient based on the octanol extraction method; assay type: physicochemical; conditions: octanol / 10 mmol/L phosphate buffer pH 7.4
Experimental: Partition coefficients based on the octanol extraction method (hereinafter referred to as log Poctanol) were measured, which are generally known as an indicator of permeability of compounds through the blood-brain barrier (hereinafter referred to as BBB).
A diethyl ether solution of Compound 1 prepared in Example 3 (Example 8), a diethyl ether solution of Compound 2 prepared in Example 6 (Example 9), and a diethyl ether solution of [^123I]-IMPY prepared in Reference Example 1 (Comparative Example 4) were each diluted with 10 mg/mL ascorbic acid-containing physiological saline solution, and adjusted to a radioactive concentration of 20-30 MBq/mL. To 2 mL of octanol, 10 μL each of the prepared sample solutions was added, 2 mL of 10 mmol/L phosphate buffer (pH 7.4) was added, followed by stirring for 30 seconds. After the mixture was centrifuged with a low-speed centrifuge (2000 rpm×60 min.), the octanol layer and the water layer were sampled each in an amount of 1 mL, and subjected to measurement of radioactivity count with an autowell gamma system (Type: ARC-301B, manufactured by Aloka). Using the obtained radioactivity count, log Poctanol was calculated in accordance with the equation (2).
A diethyl ether solution (Example 20) of Compound 4 prepared in Example 16, a diethyl ether solution (Example 21) of Compound 6 prepared in Example 19, and a diethyl ether solution (Comparative Example 7) of [^123I]-IMPY were each diluted with a 10 mg/mL ascorbic acid-containing physiological saline solution to adjust to a radioactive concentration of 20-30 MBq/mL. To 2 mL of octanol, 10 μL each of the prepared sample solution was added, and 2 mL of 10 mmol/L phosphate buffer (pH 7.4) was further added, followed by stirring for 30 seconds. After the mixture was centrifuged with a low-speed centrifuge (2000 rpm×60 min.), the octanol layer and the water layer were sampled each in an amount of 1 mL, and subjected to measurement of radioactivity count with an autowell gamma system (Type: ARC-301B, manufactured by Aloka). Using the obtained radioactivity count, log Poctanol was calculated in accordance with the equation (4).

[3] = transferability into brain and clearance after intravenous injection; assay type: in vivo, rat; conditions: for Radioactive distribution per unit weight in brain, After 2 min. / Radioactive distribution per unit weight in brain, After 5 min. / Radioactive distribution per unit weight in brain, After 30 min. / Radioactive distribution per unit weight in brain, After 60 min.: male Wistar rats, intravenous injection; for radioactive accumulation in brain two minutes after the injection (in words) / clearance from brain in 60 minutes (in words): rats, intravenous; for Radioactive distribution per unit weight in brain, After 2 min. / radioactive accumulation in brain two minutes after the injection (in words): 2 min
Experimental: Using Compound 1 (Example 10) and Compound 2 (Example 11), a time course change of radioactive accumulation in brain of male Wistar rats (7-week old) was measured.
A diethyl ether solution of Compound 1 (Example 10) prepared in Example 3, a diethyl ether solution of Compound 2 (Example 11) prepared in Example 6 and a diethyl ether solution of [^123I]-IMPY (Comparative Example 5) prepared in Reference Example 1 were each diluted with 10 mg/mL ascorbic acid-containing physiological saline solution to adjust to a radioactive concentration of 8-12 MBq/mL. 0.05 mL each of the prepared sample solutions was injected under thiopental anesthesia into the tail vein of the rats. The rats were sacrificed by bleeding from abdominal artery, and brains were removed and subjected to measurement of mass of brains and further subjected to measurement of radioactivity (hereinafter referred to as A in this Example) with a single channel analyzer (detector type: SP-20 manufactured by OHYO KOKEN KOGYO Co., Ltd.) 2, 5, 30 and 60 minutes after the injection. Further, the radioactivity level of the rest of the whole body was measured in the same manner as above (hereinafter referred to as B in this Example). Using these measurement results, radioactive distribution per unit weight of brain (% ID/g) at the respective time points were calculated in accordance with the following formula (3).
Three animals were used for the experiment at the respective time points.
Using Compound 4 and Compound 6, a time course change of radioactive accumulation in brain of male Wistar rats (7-week old) was measured.
Compound 4 (Example 22), Compound 6 (Example 23) and a solution of [^123I]-IMPY (Comparative Example 8) prepared above in Reference Example 1 were each diluted with a 10 mg/mL ascorbic acid-containing physiological saline solution to prepare solutions (20-31 MBq/mL in radioactive concentration). 0.05 mL each of the prepared sample solutions was injected under thiopental anesthesia into the tail vein of the respective Wistar rat (7-week old). The rats were sacrificed by bleeding from abdominal artery, and brains were removed and subjected to measurement of mass of brains and further subjected to measurement of radioactivity (hereinafter referred to as A in this Example) with a single channel analyzer (detector type: SP-20 manufactured by OHYO KOKEN KOGYO Co., Ltd.) 2, 5, 30 and 60 minutes after the injection. Further, the radioactivity level of the rest of the whole body was measured in the same manner as above (hereinafter referred to as B in this Example). Using these measurement results, radioactive distribution per unit weight of brain (% ID/g) at the respective time points were calculated in accordance with the following formula (5).

[4] = test system: amyloid (aggregated Aβ1-42) injected into amygdaloid nucleus; assay: confirmation of imaging of amyloid in brain (autoradiogram, Aβ1-42 injected rats); assay type: in vivo, rat; conditions: brain slice 60 minutes after intravenous injection
Experimental: (§1) (1) Aβ1-42 (manufactured by Wako) was dissolved in phosphate buffer (pH 7.4) and shaken at 37° C. for 72 hours, to obtain a 1 mg/mL suspension of aggregated Aβ (hereinafter referred to as amyloid suspension in the Examples).
(§2) (2) 2.5 μL (corresponding to […]) of the amyloid suspension was injected into an amygdaloid nucleus on one side of a male Wistar rat (7-week old). As a control, 2.5 μL of a phosphate buffered physiological saline solution (pH 7.4) was injected into an amygdaloid nucleus on the other side of the rat. The rats were examined 1 day after the injection of the amyloid suspension and the phosphate buffered physiological saline solution (pH 7.4).
(§3) (3) Compound 1 was dissolved in a 10 mg/mL ascorbic acid-containing physiological saline solution to obtain a sample solution (22 MBq/mL in radioactivity concentration in the sample solution). This solution was injected under thiopental anesthesia into the rat through the tail vein (dosage: 0.5 mL, dosed radioactivity: 11-13 MBq equivalent).
(§4) (4) Brain was removed 60 minutes after the injection to prepare a brain slice of 10 μm in thickness with a microtome (type: CM3050S, manufactured by LEICA). The brain slice was exposed to an imaging plate for 20 hours, and then image analysis was carried out by use of a Bio-imaging Analyzer (type: BAS-2500; manufactured by FUJIFILM Corporation).
(§5) Thus, it was confirmed that amyloid was deposited on the slice (FIG. 6b).
(§6) The same procedures as in Example 12 were performed except using a solution of Compound 2 in a 10 mg/mL ascorbic acid as a sample solution (the radioactive concentration of the sample solution was 25 MBq/mL).
(§7) (1) Aβ1-42 (manufactured by Wako) was dissolved in phosphate buffer (pH 7.4) and shaken at 37° C. for 72 hours, to obtain 1 mg/mL of a suspension of aggregated Aβ (hereinafter referred to as amyloid suspension in the Examples).
(§8) (3) A sample solution (30 MBq/mL in radioactivity concentration, Example 24) in which Compound 4 was dissolved in a 10 mg/mL ascorbic acid-containing physiological saline solution and a sample solution (30 MBq/mL in radioactivity concentration, Example 25) in which Compound 6 was dissolved in a 10 mg/mL ascorbic acid-containing physiological saline solution were prepared. This solution was injected under thiopental anesthesia into the rat through the tail vein (dosage: 0.5 mL, dosed radioactivity: 11-15 MBq equivalent).
(§9) Thus, it was confirmed that amyloid was deposited on the slice (FIG. 12 and FIG. 13).

[5] = molecular target: T1, amyloid (aggregated Aβ1-42) injected into amygdaloid nucleus (Homo sapiens, UniProt P05067); assay: as above; assay type: in vivo, rat; conditions: brain slice 60 minutes after intravenous injection, Aβ1-42
T1 construct: Aβ1-42 (manufactured by Wako) was dissolved in phosphate buffer (pH 7.4); purchased Wako
Experimental: as §1, §2, §3, §4, §5, §6, §7, §8, §9

[6] = rats, [11C]-labeled; cited from earlier work
[7] = molecular target: T2, amyloid (aggregated Aβ1-40) injected into amygdaloid nucleus (Homo sapiens, UniProt P05067); assay: ex vivo autoradiogram using rats of amyloid injected model (Aβ1-40); assay type: in vivo, rat; conditions: brain slice 60 minutes after intravenous injection, Aβ1-40
T2 construct: Aβ1-40 (manufactured by Peptide Institute, INC.) was dissolved in phosphate buffer (pH 7.4); purchased Peptide Institute, INC
Experimental: (§10) (1) Aβ1-40 (manufactured by Peptide Institute, INC.) was dissolved in phosphate buffer (pH 7.4) and shaken at 37° C. for 72 hours, to obtain a 1 mg/mL suspension of aggregated Aβ (hereinafter referred to as amyloid suspension in this Example).
as §2
as §3, with “[^123I]-IMPY” for “Compound 1”, “(29” for “(22”, “14.5” for “11-13”
as §4, with “Corporation). […]” for “Corporation).”

[8] = test system: amyloid (aggregated Aβ1-40) injected into amygdaloid nucleus; assay: as above; assay type: in vivo, rat; conditions: brain slice 60 minutes after intravenous injection
Experimental: as §10, §2
as §3, with “[^123I]-IMPY” for “Compound 1”, “(29” for “(22”, “14.5” for “11-13”
as §4, with “Corporation). […]” for “Corporation).”

[9] = Table 6 (Examples 20-21, Comparative Example 7)
[10] = Table 4 (Examples 8-9, Comparative Example 4)

T1 sequence (P05067 672-713): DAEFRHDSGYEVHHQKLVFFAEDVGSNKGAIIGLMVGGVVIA
T2 sequence (P05067 672-711): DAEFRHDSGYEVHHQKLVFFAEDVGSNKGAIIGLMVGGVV

Row | Compound | logPoctanol value [2, 9] | Radioactive distribution per unit weight in brain, After 2 min. ([3]; Table 7) [% ID/g] | Radioactive distribution per unit weight in brain, After 5 min. ([3]; Table 7) [% ID/g] | Radioactive distribution per unit weight in brain, After 30 min. ([3]; Table 7) [% ID/g] | Radioactive distribution per unit weight in brain, After 60 min. ([3]; Table 7) [% ID/g] | radioactive accumulation in brain two minutes after the injection (in words) [3] | clearance from brain in 60 minutes (in words) [3] | accumulation of radioactivity at sites other than the amyloid injected sites [4] | accumulation of radioactivity in amygdaloid nucleus on the physiological saline-injected side [4] | accumulation of radioactivity in amygdaloid nucleus on the amyloid-injected side [5] | also measured
1 | CN(C)c1ccc(-c2cn3cc(I)ccc3n2)cc1 [IMPY, 6-iodo-2-[4′-(N,N-dimethylamino)phenyl]imidazo[1,2-a]pyridine] |  |  |  |  |  |  |  |  |  |  | reverse mutation test result [1]: positive
2 | 2-[4′-(3″-hydroxypropoxy)phenyl]-6-[^123I]iodoimidazo[1,2-a]pyridine [Compound 6] | 2.1 | 0.81 | 0.56 | 0.07 | 0.02 | significant accumulation | rapidly clear away | little accumulation of radioactivity | no significant accumulation of radioactivity | marked accumulation of radioactivity | 
3 | CNc1ccc(/C=C/c2ccc(O)cc2)cc1 [SB-13, (E)-4-methylamino-4′-hydroxystilbene] |  |  |  |  |  |  |  |  |  |  | clearance from normal tissues [6]: it cannot be said that the clearance is sufficiently fast
4 | 2-(4′-ethoxyphenyl)-6-[^123I]iodoimidazo[1,2-a]pyridine [Compound 2] |  |  |  |  |  | significant radioactive accumulation | rapidly clear away | some radioactive accumulation | no significant accumulation of radioactivity | marked accumulation of radioactivity | logPoctanol value [2, 10]: 2.1; Radioactive distribution per unit weight in brain, After 2 min. ([3]; Table 5): 0.89 % ID/g; Radioactive distribution per unit weight in brain, After 5 min. ([3]; Table 5): 0.66 % ID/g; Radioactive distribution per unit weight in brain, After 30 min. ([3]; Table 5): 0.13 % ID/g; Radioactive distribution per unit weight in brain, After 60 min. ([3]; Table 5): 0.04 % ID/g
5 | 2-[3′-(2″-hydroxyethoxy)phenyl]-6-[^123I]iodoimidazo[1,2-a]pyridine [Compound 4] | 2.5 | 0.56 | 0.28 | 0.04 | 0.01 | significant accumulation | rapidly clear away | little accumulation of radioactivity | no significant accumulation of radioactivity | marked accumulation of radioactivity | 
6 | CC(=C(C#N)C#N)c1ccc2cc(N(C)CCF)ccc2c1 [FDDNP, 2-(1-{6-[(2-fluoroethyl)(methyl)amino]-2-naphthyl}ethylidene)malononitrile] |  |  |  |  |  |  |  |  |  |  | reverse mutation test result [1]: positive
7 | CN(C)c1ccc(-c2cn3cc([123I])ccc3n2)cc1 [[^123I]-IMPY, reference compound] | 2.1 | 1.19 | 0.97 | 0.23 | 0.09 |  |  |  |  |  | accumulation of radioactivity in amygdaloid nucleus on the amyloid-injected side [7]: marked accumulation of radioactivity; accumulation in white matter where amyloid was not injected [8]: non-specific accumulation was observed; logPoctanol value [2, 10]: 1.9; Radioactive distribution per unit weight in brain, After 2 min. ([3]; Table 5): 1.19 % ID/g; Radioactive distribution per unit weight in brain, After 5 min. ([3]; Table 5): 0.97 % ID/g; Radioactive distribution per unit weight in brain, After 30 min. ([3]; Table 5): 0.23 % ID/g; Radioactive distribution per unit weight in brain, After 60 min. ([3]; Table 5): 0.09 % ID/g
